For one compound, solubility and DVS water adsorption results are on record in US20260258017A1, “CO-CRYSTAL FORMS OF SELINEXOR” (Karyopharm Therapeutics Inc., priority 2019, published 2026).

For data set [1] the following is noted: comparison statement for selinexor itself; no medium given; cited from earlier work.
The nature of data set [2]: DVS moisture sorption isotherm. Type of data set: physicochemical. To be noted: 25° C., 0-90% RH, 10% RH intervals. As for the experimental part:
Sorption isotherms are obtained using a TA Instruments Q5000 SA DVS. The sample temperature is maintained at 25° C. by the instrument controls. The humidity is controlled by mixing streams of dry and wet nitrogen, with a total flow rate of 200 ml/min. The relative humidity is measured by a calibrated probe (dynamic range of […]), located near the sample. The weight change, (mass relaxation) of the sample as a function of % RH is constantly monitored by a microbalance (accuracy 0.0001 mg). Typically, 3-10 mg of sample is placed in a tared mesh stainless steel basket under ambient conditions. The sample is loaded and unloaded at 50% RH and 25° C. (typical room conditions). A moisture sorption isotherm is performed as outlined below (2 scans per complete cycle). The standard isotherm is performed at 25° C. at 10% RH intervals over a 0-90% RH range. Typically, a triple cycle is carried out. Data analysis is carried out using TA Instruments Universal Analysis 2000. [table]

With `O=C(/C=C\n1cnc(-c2cc(C(F)(F)F)cc(C(F)(F)F)c2)n1)NNc1cnccn1` [selinexor, (Z)-3-(3-(3,5-bis(trifluoromethyl)phenyl)-IH-I,2,4-triazol-1-yl)-N′-(pyrazin-2yl)acrylohydrazide], the solubility entry in data set [1] is given as “low solubility”. In addition, in data set [2], the DVS water adsorption result was “does not adsorb water”.
